Laboratory results as given in publication PMC6440977, “Nucleoside analogue activators of cyclic AMP-independent protein kinase A of Trypanosoma” (Nature Communications, 2019).
Values joined by “and” are separate entries in the source; they are usually repeats but may differ in a detail not shown here. Equal values may be shown once. Read-outs that look alike come from different tables or passages of the source.

How the values were obtained:
[1] = molecular target: T. brucei PKA (Trypanosoma brucei brucei, UniProt Q9GU80); assay: In vivo PKA reporter assay (VASP Ser-157 phosphorylation, western blot); format: cell-based; settings: for % VASP phosphorylation: independent replicates; for effect on in vivo PKA activity (VASP phosphorylation), in words: wild type background;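 on % VASP phosphorylation: Phosphorylated VASP as percent of total VASP band signal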;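 on all read-outs here: T. brucei cells expressing human VASP as heterologous PKA substrate, compound exposure at 37 °C, western blot of phospho (50 kDa) versus unphosphorylated (46 kDa) VASP band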
[2] = system: T. brucei ∆pkar/∆pkar (pkar KO) cells; assay: microbe, parasite or virus in culture; format: cell-based, Trypanosoma brucei
[3] = system: T. brucei BSF cells (WT); assay: Alamar blue cell viability assay, wild type; settings: wild type cells;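 further: trypanosomes seeded at 5×10^3 per ml and grown 72 h with compound, then resazurin 0.5 mM added for 4 h as the viability read-out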
[4] = system: T. brucei PKA holoenzyme (Ty1-PKAC1); format: biochemical, Trypanosoma brucei; settings: for effect on basal kinase activity of immunoprecipitated holoenzyme, in words / in vitro kinase assay [CPM], average / in vitro kinase assay [CPM]: 1 mM; for in vitro kinase assay [CPM], PKI: 1 mM + 5 µM PKI(5-24); for in vitro kinase assay [CPM], PKI / in vitro kinase assay [CPM], average / in vitro kinase assay [CPM]: Supp Fig 3c; for in vitro kinase assay [CPM], average: average of 3; for in vitro kinase assay [CPM]: independent replicates
[5] = molecular target: T. brucei PKAR-PKAC1 holoenzyme (Trypanosoma brucei, UniProt Q9GU80); assay: biochemical; format: biochemical; settings: technical replicates
[6] = read-out: EC50, Alamar blue cell viability assay, WT, individual replicate results

T. brucei PKAR-PKAC1 holoenzyme, sequence (Q38DR5 entry or part of it): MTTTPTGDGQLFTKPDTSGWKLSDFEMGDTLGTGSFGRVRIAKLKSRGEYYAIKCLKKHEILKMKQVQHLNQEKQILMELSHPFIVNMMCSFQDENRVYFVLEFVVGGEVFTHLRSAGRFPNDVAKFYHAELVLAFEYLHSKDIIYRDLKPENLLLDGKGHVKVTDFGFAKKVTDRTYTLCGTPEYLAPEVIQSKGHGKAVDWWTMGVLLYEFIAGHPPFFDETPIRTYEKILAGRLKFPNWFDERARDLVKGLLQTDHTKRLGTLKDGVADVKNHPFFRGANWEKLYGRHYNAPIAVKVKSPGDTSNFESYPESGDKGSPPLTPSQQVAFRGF
T. brucei PKAR-PKAC1 holoenzyme, sequence (Q9GU80 entry or part of it): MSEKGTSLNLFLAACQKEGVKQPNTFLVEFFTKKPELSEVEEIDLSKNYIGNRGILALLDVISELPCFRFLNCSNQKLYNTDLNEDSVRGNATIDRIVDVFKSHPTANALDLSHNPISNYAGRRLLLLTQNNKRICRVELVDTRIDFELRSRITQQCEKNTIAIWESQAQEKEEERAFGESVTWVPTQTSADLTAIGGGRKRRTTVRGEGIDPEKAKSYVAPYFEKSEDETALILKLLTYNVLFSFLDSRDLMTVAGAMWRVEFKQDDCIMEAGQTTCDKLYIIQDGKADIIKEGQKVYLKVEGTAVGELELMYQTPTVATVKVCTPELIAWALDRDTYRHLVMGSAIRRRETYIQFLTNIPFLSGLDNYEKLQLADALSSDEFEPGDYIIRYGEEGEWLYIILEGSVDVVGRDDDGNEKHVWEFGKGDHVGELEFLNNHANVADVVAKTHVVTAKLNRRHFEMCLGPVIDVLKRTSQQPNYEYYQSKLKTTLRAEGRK
T. brucei PKA, sequence (Q38DS1 entry or part of it): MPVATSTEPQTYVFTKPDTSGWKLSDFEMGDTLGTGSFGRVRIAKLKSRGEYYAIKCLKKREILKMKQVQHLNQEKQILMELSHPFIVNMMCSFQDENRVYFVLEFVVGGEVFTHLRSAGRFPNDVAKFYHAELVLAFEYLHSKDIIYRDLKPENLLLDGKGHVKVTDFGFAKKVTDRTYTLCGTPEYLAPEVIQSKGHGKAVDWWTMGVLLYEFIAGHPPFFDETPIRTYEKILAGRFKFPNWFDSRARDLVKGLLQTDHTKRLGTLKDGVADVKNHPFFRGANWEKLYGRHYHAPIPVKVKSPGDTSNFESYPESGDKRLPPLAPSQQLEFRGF
T. brucei PKA, sequence (Q38DR5 entry or part of it, further chain): as the sequence (Q38DR5 entry or part of it) above
T. brucei PKA, sequence (Q9GU80 entry or part of it): as the sequence (Q9GU80 entry or part of it) above

For `CC(=O)OCOP1(=O)OC[C@H]2O[C@@H](n3cnc4c(=O)[nH]c(N)nc43)[C@H](O)[C@@H]2O1` (stereo partly drawn) [cGMP-AM, Guanosine-3',5'-cyclic monophosphate, acetoxymethyl ester], the “% VASP phosphorylation” value ([1]; 10 µM) was 34.8925% and 34.7802% and 32.2694%, the “% VASP phosphorylation” value ([1]; 20 µM) was 44.672% and 38.9969% and 29.3979% and the “% VASP phosphorylation” value ([1]; 50 µM) was 40.2424% and 33.9184% and 40.637%. For the same compound, the “% VASP phosphorylation” value ([1]; 100 µM) was 34.6686% and 36.9156% and 43.827% and the “% VASP phosphorylation” value ([1]; 200 µM) was 34.2202% and 37.453% and 36.5899%.
For `Nc1ncnc2c1nc(Br)n2[C@@H]1O[C@H](CO)[C@@H](O)[C@H]1O` [8-Br-Ado, 8-Bromoadenosine], the “effect on in vivo PKA activity (VASP phosphorylation), in words” value (“effect on in vivo PKA activity” for short) [1] was “no effect”.
`Nc1ncnc2c1nc(Sc1ccc(Cl)cc1)n2[C@@H]1O[C@@H]2COP(=O)([O-])O[C@H]2[C@H]1O.[Na+]` [8-pCPT-cAMP, 8-(4-Chlorophenylthio)adenosine-3',5'-cyclic monophosphate] was tested, and the “% VASP phosphorylation” value ([1]; 10 µM) was 24.5763% and 23.1009% and 28.0286%, the “% VASP phosphorylation” value ([1]; 50 µM) was 16.5457% and 18.6378% and 24.8744% and the “% VASP phosphorylation” value ([1]; 100 µM) was 10.9425% and 13.8058% and 25.7149%. For the same compound, the “% VASP phosphorylation” value ([1]; 250 µM) was 9.807% and 10.2688% and 23.6208%, the “% VASP phosphorylation” value ([1]; 1000 µM) was 10.7438% and 15.1961% and 19.6401% and the “effect on in vivo PKA activity” value [1] was “No PKA activation”.
For `NC(=O)c1cn([C@@H]2O[C@H](CO)[C@@H](O)[C@H]2O)c2ncnc(N)c12` [Sangi], the EC50 ([2]; read-out: EC50, Alamar blue cell viability assay, KO; individual replicate results; pkar KO cells) was 1.57 µM and 0.868 µM and 2.2 µM and 1.91 µM and 1.63 µM and 1.94 µM and 1.36 µM and 0.902 µM, the EC50 ([3]; Trypanosoma brucei, read-out: EC50, Alamar blue cell viability assay, WT, individual replicate results) was 0.697 µM and the EC50 [3, 6] was 0.895 µM and 0.53 µM and 0.73 µM and 0.713 µM and 0.726 µM and 0.707 µM.
For `CO[C@@H]1[C@H](O)[C@@H](CO)O[C@H]1n1c(Sc2ccc(Cl)cc2)nc2c(N)ncnc21` [8-pCPT-2-′O-Me-Ado, 8-(4-Chlorophenylthio)-2'-O-methyladenosine], the “effect on in vivo PKA activity” value [1] was “slight inhibitory”.
For `O=c1[nH]cnc2c1ncn2[C@@H]1O[C@@H]2COP(=O)(O)O[C@H]2[C@H]1O` [cIMP, inosine-3’,5’-cyclic monophosphate], the “effect on basal kinase activity of immunoprecipitated holoenzyme, in words” value [4] was “did not show any significant effects”, the “in vitro kinase assay [CPM], PKI” value [4] was 620.6 CPM and the “in vitro kinase assay [CPM], average” value [4] was 7285.53 CPM. The “in vitro kinase assay [CPM]” value [4] was 5568.4 CPM and 8615.56 CPM and 7672.63 CPM.
In the case of `CC(=O)OCOP1(=O)OC[C@H]2O[C@@H](n3cnc4c(N)ncnc43)[C@H](O)[C@@H]2O1` (stereo partly drawn) [cAMP-AM, Adenosine-3',5'-monophosphate, acetoxymethyl ester], the “% VASP phosphorylation” value ([1]; 10 µM) is reported as 36.276% and 37.2% and 34.8195%, the “% VASP phosphorylation” value ([1]; 20 µM) is reported as 33.4307% and 32.7356% and 35.3637% and the “% VASP phosphorylation” value ([1]; 50 µM) is reported as 35.9017% and 33.7363% and 34.7458%. The “% VASP phosphorylation” value ([1]; 100 µM) was 35.4076% and 39.0007% and 33.2483%, the “% VASP phosphorylation” value ([1]; 200 µM) was 44.3984% and 35.5186% and 38.5924% and the “effect on in vivo PKA activity” value [1] was “No PKA activation”.
`OCCN(CCO)c1nc(N2CCCCC2)c2nc(N(CCO)CCO)nc(N3CCCCC3)c2n1` [Dipy] was tested, and the EC50 ([2]; individual replicate results; pkar KO cells; read-out: EC50, Alamar blue cell viability assay, KO) was 12.4 µM and 21.9 µM and 24.9 µM and 25.2 µM and 9.93 µM and 13.6 µM and 21.1 µM and 14.9 µM and 8.89 µM and 13.3 µM and 13.1 µM and the EC50 [3, 6] was 12.1 µM and 6.38 µM and 10.7 µM and 10.6 µM and 10.9 µM and 16.8 µM and 6.54 µM and 7.48 µM and 7.07 µM and 13.4 µM and 7.42 µM.
In the case of `Nc1ncnc2nc(Sc3ccc(Cl)cc3)[nH]c12` [8-pCPT-Ade, 8-(4-Chlorophenylthio)adenine], the “effect on in vivo PKA activity” value [1] is reported as “no effect”.
For `Nc1ncnc2c1cc(Br)n2[C@@H]1O[C@H](CO)[C@@H](O)[C@H]1O` [6-Br-Tu, 8-Bromo-7-deazaadenosine], the “effect on in vivo PKA activity” value [1] was “no effect”.
`OCCN(CCO)c1nc(N2CCCCC2)c2nc(N(CCO)CCO)nc(N3CCCCC3)c2n1` [Dipyridamol] was tested, and the “In vitro kinase assay” value ([5]; 1 µM) was 0.38 U/ml and 0.36 U/ml, the “In vitro kinase assay” value ([5]; 100 µM) was 0.31 U/ml and 0.36 U/ml and the “In vitro kinase assay” value ([5]; 1 mM) was 0.38 U/ml and 0.41 U/ml.
With `O=c1[nH]c(=O)c2ncn(C3OC4COP(=O)(O)OC4C3O)c2[nH]1` (stereo not drawn) [cXMP, xanthosine-3’,5’-cyclic monophosphate] the “effect on basal kinase activity of immunoprecipitated holoenzyme, in words” value [4] was “did not show any significant effects”, the “in vitro kinase assay [CPM], PKI” value [4] was 870.13 CPM and the “in vitro kinase assay [CPM], average” value [4] was 6246.71 CPM. For the same compound, the “in vitro kinase assay [CPM]” value [4] was 4909.43 CPM and 6708.76 CPM and 7121.93 CPM.
`CO[C@@H]1[C@H](O)[C@@H](CO)O[C@H]1n1c(Sc2ccc(Cl)cc2)nc2c(N)ncnc21` [8-pCPT-2'O-me-Ado] was tested, and the “% VASP phosphorylation” value ([1]; 10 µM) was 17.7877% and 18.0048% and 22.1674%, the “% VASP phosphorylation” value ([1]; 20 µM) was 16.9524% and 18.6949% and 22.9783% and the “% VASP phosphorylation” value ([1]; 50 µM) was 17.4825% and 18.9639% and 23.6777%. For the same compound, the “% VASP phosphorylation” value ([1]; 100 µM) was 18.5972% and 20.7972% and 25.3942% and the “% VASP phosphorylation” value ([1]; 250 µM) was 20.7922% and 23.6499% and 24.007%.
